Patent US10344034B2, “Pyrazolopyrimidone or Pyrrolotriazone derivatives, method of preparing same, and pharmaceutical applications thereof” (Shanghai Hengrui Pharmaceutical Co., Ltd., priority 2013, dated 2019)

What was measured:
[1] = target: human GnRHr (Homo sapiens (Human), UniProt P30968); experiment: Human GnRHr (GnRH receptor) activity assay, Fluo-4 calcium signal in Human GnRHr/CHO stably transfected cell lines; format: cell-based; conditions: Human GnRHr/CHO cells, GnRH polypeptide stimulant
Chain of human GnRHr (P30968 whole entry): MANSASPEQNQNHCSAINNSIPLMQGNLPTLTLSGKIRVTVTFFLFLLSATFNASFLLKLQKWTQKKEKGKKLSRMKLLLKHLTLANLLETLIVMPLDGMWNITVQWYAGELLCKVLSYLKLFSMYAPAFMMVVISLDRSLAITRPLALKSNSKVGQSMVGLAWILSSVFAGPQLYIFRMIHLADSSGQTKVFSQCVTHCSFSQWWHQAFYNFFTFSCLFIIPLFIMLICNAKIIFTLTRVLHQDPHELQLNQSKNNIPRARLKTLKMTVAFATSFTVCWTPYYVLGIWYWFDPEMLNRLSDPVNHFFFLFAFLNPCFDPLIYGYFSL
Protocol: Test Example 1. Human GnRHr (GnRH Receptor) Activity Assay of the Present Compounds.
In vitro GnRHr protein activity was tested by the following methods.
This assay was used to determine the inhibition effect of the present compound on the activity of human GnRHr protein expressed by Human GnRHr/CHO stably transfected cell lines.
A mammalian expression vector containing the human GnRHr gene was transferred into CHO cells by adding Lipofectamine® LTX reagent containing Plus™. Antibiotics were added the next day for screening to pick out the monoclonal cell lines.
(§1) The Human GnRHr/CHO stably transfected cell lines were inoculated in 96-well plates with an inoculation density of 25,000 cells/well. The culture medium was removed the next day, and loading buffer containing Fluo-4 dye was added to the plate (100 μL/well) and incubated for 30 minutes at 37° C. The plate was moved to room temperature and equilibrated for 10 minutes. Each compound was diluted with DMSO to seven concentration gradients of 100 μM, 10 μM, 1 μM, 0.1 μM, 0.01 μM, 0.001 μM, 0.0001 μM. Then, 1 μl of each gradient was added to each well and incubated for 10 minutes at room temperature. After automated addition of 50 μL of GnRH polypeptide stimulant solution, the value was immediately detected at 494/516 nM by a microplate reader (flexstation 3). IC50 values of the compounds were calculated by software from different fluorescence signals at various corresponding concentrations.
The inhibitory activity of the present compounds on human GnRHr was determined by the above assay, and IC50 values are shown in Table 1.

[2] = Rat pharmacokinetics assay; format: in vivo, Sprague-Dawley (SD) rats; conditions: both sexes, Sprague-Dawley, plasma, oral 10 mg/kg; for Vd/F: read-out: Apparent volume of distribution Vz/F; for AUC: read-out: Area under curve AUC; for CL/F: read-out: Clearance rate CL/F; for half-life: read-out: Half-life T1/2 (converted); for Cmax: read-out: Plasma concentration Cmax; for MRT: read-out: Residence time MRT
Protocol: Test Example 4. Rat pharmacokinetics assay of the compounds of Example 2, Example 3, Example 5, Example 9, Example 10, Example 11, and Example 13 of the present invention.
Sprague-Dawley (SD) rats were used as test animals. The plasma concentrations at various times were determined by LC/MS/MS after intragastric administration of compounds of Example 2, Example 3, Example 5, Example 9, Example 10, Example 11, and Example 13, and intravenous administration of the compound of Example 11 to the rats. The pharmacokinetic behavior of the present compounds in rats was studied, and the pharmacokinetic features were evaluated.
Thirty-two (32) healthy adult SD rats (half female and half male) were evenly designated into 8 groups (4 for each group). The animals were purchased from Shanghai Super B&K Laboratory Animal Corp. Ltd (laboratory animal production Certificate No. SCXK (HU)2008-0016).
An appropriate amount of sample was weighed, and added with 0.5% CMC-Na to form a 1 mg/ml suspension upon ultrasonic treatment.
Appropriate amounts of drugs were weighed, and dissolved with 0.5 ml DMSO and 0.5 ml of Tween 80. Saline solution was added to the final volume.
Thirty-two (32) SD rats (half female and half male) were evenly designated into 8 groups (4 for each group), and administered by oral gavage or intravenous injection (i.v.) (oral gavage at a dosage of 10 mg/kg or 30 mg/kg, and i.v. at a dosage of 5.0 mg/kg), respectively, at a volume of 10 ml/kg after fasting overnight.
0.1 ml of blood was sampled before, and 0.5, 1, 2, 4, 6, 8, 11, and 24 hours after administration, collected in a heparinized test tube, and centrifuged at 3500 rpm for 10 minutes to separate the plasma, which was stored at −20° C. The animals were allowed access to feed 2 hours after administration.
The content of the test compound in the plasma of rats after administration of the compound by oral gavage was determined by LC/MS/MS.

[3] = target: rabbit GnRHr (Oryctolagus cuniculus, UniProt Q5U7L3); experiment: Rabbit GnRHr inhibitory activity assay, rabbit GnRHr/CHO stably transfected cell lines; format: cell-based; conditions: rabbit GnRHr/CHO cells, GnRH polypeptide stimulant, Fluo-4
Chain of rabbit GnRHr (Q5U7L3 1-328): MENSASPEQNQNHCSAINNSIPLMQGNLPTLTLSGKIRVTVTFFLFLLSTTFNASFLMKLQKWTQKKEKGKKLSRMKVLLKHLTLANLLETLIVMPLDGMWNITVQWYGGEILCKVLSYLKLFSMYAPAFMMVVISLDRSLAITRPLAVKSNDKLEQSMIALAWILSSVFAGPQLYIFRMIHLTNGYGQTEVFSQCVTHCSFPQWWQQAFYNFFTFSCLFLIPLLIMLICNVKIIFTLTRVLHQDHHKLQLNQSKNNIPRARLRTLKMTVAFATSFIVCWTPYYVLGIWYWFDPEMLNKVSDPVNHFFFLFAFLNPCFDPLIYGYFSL
Protocol: Test Example 3. Rabbit GnRHr Inhibitory Activity Assay of the Present Compounds
This assay was used to determine the inhibition effect of the present compounds on the activity of rabbit GnRHr protein expressed by rabbit GnRHr/CHO stably transfected cell lines.
A mammalian expression vector containing the rabbit GnRHr gene was transferred into CHO cells by adding Lipofectamine® LTX reagent containing Plus™. Antibiotics were added the next day for screening to pick out the monoclonal cell lines.
as §1, with “rabbit” for “Human”, “494/516n M” for “494/516 nM”
The inhibitory activity of the present compounds on rabbit GnRHr was determined by the above assay, and IC50 values are shown in Table 1.

| IC50 [1] [nM] | Vd/F [2] [L/kg] | AUC [2] [ng·h/mL] | CL/F [2] [mL/min/kg] | half-life [2] [min] | Cmax [2] [ng/mL] | MRT [2] [h] | Compound | IC50 [3] [nM] |
| --- | --- | --- | --- | --- | --- | --- | --- | --- |
| 0.92 | 231 ± 234 | 389 ± 298 | 915 ± 1050 | 199 ± 34.2 | 103 ± 64 | 4.48 ± 0.7 | CCNC(=O)Nc1ccc(-c2cn3c(c2CN(C)C)c(=O)n(-c2cccc(OC)c2F)c(=O)n3Cc2c(F)cccc2F)cc1 [Example 13, 1-(4-(1-(2,6-difluorobenzyl)-5-((dimethylamino)methyl)-3-(2-fluoro-3-methoxyphenyl)-2,4-dioxo-1,2,3,4-tetrahydropyrrolo[2,1-f][1,2,4]triazin-6-yl)phenyl)-3-ethylurea] |  |
| 0.49 |  |  |  |  |  |  | CONC(=O)Nc1ccc(-n2nc3c(c2CN(C)C)c(=O)n(-c2cccc(OC)c2F)c(=O)n3Cc2c(F)cccc2C(F)(F)F)cc1 [Example 7, 1-(4-(3-((dimethylamino)methyl)-5-(2-fluoro-3-methoxyphenyl)-7-(2-fluoro-6-(trifluoromethyl)benzyl)-4,6-dioxo-4,5,6,7-tetrahydro-2H-pyrazolo[3,4-d]pyrimidin-2-yl)phenyl)-3-methoxyurea] |  |
| 0.43 |  |  |  |  |  |  | CONC(=O)Nc1ccc(-c2cn3c(c2CN(C)C)c(=O)n(-c2cccc(OC)c2F)c(=O)n3Cc2c(F)cccc2F)cc1 [Example 15, 1-(4-(1-(2,6-difluorobenzyl)-5-((dimethylamino)methyl)-3-(2-fluoro-3-methoxyphenyl)-2,4-dioxo-1,2,3,4-tetrahydropyrrolo[2,1-f][1,2,4]triazin-6-yl)phenyl)-3-methoxyurea] |  |
| 0.11 |  |  |  |  |  |  | CNC(=O)Nc1ccc(-c2cn3c(c2CN(C)C)c(=O)n(-c2cccc(OC)c2F)c(=O)n3Cc2c(F)cccc2F)cc1 [Example 14, 1-(4-(1-(2,6-difluorobenzyl)-5-((dimethylamino)methyl)-3-(2-fluoro-3-methoxyphenyl)-2,4-dioxo-1,2,3,4-tetrahydropyrrolo[2,1-f][1,2,4]triazin-6-yl)phenyl)-3-methylurea] |  |
| 1.46 | 14.4 ± 10.5 | 1550 ± 650 | 121 ± 44 | 74.4 ± 32.4 | 746 ± 493 | 2.02 ± 0.67 | CONC(=O)Nc1ccc(-n2nc3c(c2CN(C)C)c(=O)n(-c2cccc(OC)c2F)c(=O)n3Cc2c(F)cccc2F)cc1 [Example 2, 1-(4-(7-(2,6-difluorobenzyl)-3-((dimethylamino)methyl)-5-(2-fluoro-3-methoxyphenyl)-4,6-dioxo-4,5,6,7-tetrahydro-2H-pyrazolo[3,4-d]pyrimidin-2-yl)phenyl)-3-methoxyurea] |  |
| 0.66 | 46.8 ± 39.2 | 1290 ± 1030 | 247 ± 198 | 139 ± 39 | 690 ± 660 | 2.47 ± 0.75 | CNC(=O)Nc1ccc(-n2nc3c(c2CN(C)C)c(=O)n(-c2cccc(OC)c2F)c(=O)n3Cc2c(F)cccc2F)cc1 [Example 5, 1-(4-(7-(2,6-difluorobenzyl)-3-((dimethylamino)methyl)-5-(2-fluoro-3-methoxyphenyl)-4,6-dioxo-4,5,6,7-tetrahydro-2H-pyrazolo[3,4-d]pyrimidin-2-yl)phenyl)-3-methylurea] |  |
| 2.32 |  |  |  |  |  |  | CNC(=O)Nc1ccc(-c2cn3c(c2CN(C)C)c(=O)n(-c2ccc(OC)nn2)c(=O)n3Cc2c(F)cccc2F)cc1 [Example 16, 1-(4-(1-(2,6-difluorobenzyl)-5-((dimethylamino)methyl)-3-(6-methoxypyridazin-3-yl)-2,4-dioxo-1,2,3,4-tetrahydropyrrolo[2,1-f][1,2,4]triazin-6-yl)phenyl)-3-methylurea] |  |
| 0.9 | 96.2 ± 42.2 | 1070 ± 472 | 181 ± 79 | 370 ± 47.4 | 237 ± 158 | 6.42 ± 1.39 | CCNC(=O)Nc1ccc(-n2nc3c(c2CN(C)C)c(=O)n(-c2cccc(OC)c2F)c(=O)n3Cc2c(F)cccc2F)cc1 [Example 3, 1-(4-(7-(2,6-difluorobenzyl)-3-((dimethylamino)methyl)-5-(2-fluoro-3-methoxyphenyl)-4,6-dioxo-4,5,6,7-tetrahydro-2H-pyrazolo[3,4-d]pyrimidin-2-yl)phenyl)-3-ethylurea] |  |
| 2.24 |  |  |  |  |  |  | CNC(=O)Nc1ccc(-n2nc3c(c2CN(C)C)c(=O)n(-c2ccc(OC)nn2)c(=O)n3Cc2c(F)cccc2C(F)(F)F)cc1 [Example 12, 1-(4-(3-((dimethylamino)methyl)-7-(2-fluoro-6-(trifluoromethyl)benzyl)-5-(6-methoxypyridazin-3-yl)-4,6-dioxo-4,5,6,7-tetrahydro-2H-pyrazolo[3,4-d]pyrimidin-2-yl)phenyl)-3-methylurea] |  |
| 0.96 |  |  |  |  |  |  | CCNC(=O)Nc1ccc(-n2nc3c(c2CN(C)C)c(=O)n(-c2cccc(OC)c2F)c(=O)n3Cc2c(F)cccc2C(F)(F)F)cc1 [Example 6, 1-(4-(3-((dimethylamino)methyl)-5-(2-fluoro-3-methoxyphenyl)-7-(2-fluoro-6-(trifluoromethyl)benzyl)-4,6-dioxo-4,5,6,7-tetrahydro-2H-pyrazolo[3,4-d]pyrimidin-2-yl)phenyl)-3-ethylurea] |  |
| 0.66 | 30.3 ± 14.4 | 1240 ± 593 | 168 ± 95 | 137 ± 50.4 | 598 ± 431 | 2.96 ± 0.17 | CCNC(=O)Nc1ccc(-n2nc3c(c2CN(C)C)c(=O)n(-c2ccc(OC)nn2)c(=O)n3Cc2c(F)cccc2F)cc1 [Example 10, 1-(4-(7-(2,6-difluorobenzyl)-3-((dimethylamino)methyl)-5-(6-methoxypyridazin-3-yl)-4,6-dioxo-4,5,6,7-tetrahydro-2H-pyrazolo[3,4-d]pyrimidin-2-yl)phenyl)-3-ethylurea] |  |

| Compound | IC50 [1] [nM] | Vd/F [2] [L/kg] | AUC [2] [ng·h/mL] | CL/F [2] [mL/min/kg] | half-life [2] [min] | Cmax [2] [ng/mL] | MRT [2] [h] | IC50 [3] [nM] |
| --- | --- | --- | --- | --- | --- | --- | --- | --- |
| CNC(=O)Nc1ccc(-n2nc3c(c2CN(C)C)c(=O)n(-c2cccc(OC)c2F)c(=O)n3Cc2c(F)cccc2C(F)(F)F)cc1 [Example 8, 1-(4-(3-((dimethylamino)methyl)-5-(2-fluoro-3-methoxyphenyl)-7-(2-fluoro-6-(trifluoromethyl)benzyl)-4,6-dioxo-4,5,6,7-tetrahydro-2H-pyrazolo[3,4-d]pyrimidin-2-yl)phenyl)-3-methylurea] | 0.6 |  |  |  |  |  |  | 0.27 |
| CNC(=O)Nc1ccc(-n2nc3c(c2CN(C)C)c(=O)n(-c2ccc(OC)nn2)c(=O)n3Cc2c(F)cccc2F)cc1 [Example 9, 1-(4-(7-(2,6-difluorobenzyl)-3-((dimethylamino)methyl)-5-(6-methoxypyridazin-3-yl)-4,6-dioxo-4,5,6,7-tetrahydro-2H-pyrazolo[3,4-d]pyrimidin-2-yl)phenyl)-3-methylurea] | 0.42 | 72 ± 25 | 628 ± 369 | 332 ± 159 | 175 ± 98.4 | 146 ± 59 | 4.67 ± 2.22 | 0.24 |
